Some results are limits rather than exact numbers.

In one test the target is T1, human MR (Homo sapiens, UniProt P08235).
T1 construct: The full length human MR gene is cloned from a human kidney or human brain cDNA library; His tag from the pAcHLT vector (own knowledge); made in house; host or cells: Sf9 insect cells (baculovirus, pAcHLT transfer vector)
T1 sequence (P08235 1-984): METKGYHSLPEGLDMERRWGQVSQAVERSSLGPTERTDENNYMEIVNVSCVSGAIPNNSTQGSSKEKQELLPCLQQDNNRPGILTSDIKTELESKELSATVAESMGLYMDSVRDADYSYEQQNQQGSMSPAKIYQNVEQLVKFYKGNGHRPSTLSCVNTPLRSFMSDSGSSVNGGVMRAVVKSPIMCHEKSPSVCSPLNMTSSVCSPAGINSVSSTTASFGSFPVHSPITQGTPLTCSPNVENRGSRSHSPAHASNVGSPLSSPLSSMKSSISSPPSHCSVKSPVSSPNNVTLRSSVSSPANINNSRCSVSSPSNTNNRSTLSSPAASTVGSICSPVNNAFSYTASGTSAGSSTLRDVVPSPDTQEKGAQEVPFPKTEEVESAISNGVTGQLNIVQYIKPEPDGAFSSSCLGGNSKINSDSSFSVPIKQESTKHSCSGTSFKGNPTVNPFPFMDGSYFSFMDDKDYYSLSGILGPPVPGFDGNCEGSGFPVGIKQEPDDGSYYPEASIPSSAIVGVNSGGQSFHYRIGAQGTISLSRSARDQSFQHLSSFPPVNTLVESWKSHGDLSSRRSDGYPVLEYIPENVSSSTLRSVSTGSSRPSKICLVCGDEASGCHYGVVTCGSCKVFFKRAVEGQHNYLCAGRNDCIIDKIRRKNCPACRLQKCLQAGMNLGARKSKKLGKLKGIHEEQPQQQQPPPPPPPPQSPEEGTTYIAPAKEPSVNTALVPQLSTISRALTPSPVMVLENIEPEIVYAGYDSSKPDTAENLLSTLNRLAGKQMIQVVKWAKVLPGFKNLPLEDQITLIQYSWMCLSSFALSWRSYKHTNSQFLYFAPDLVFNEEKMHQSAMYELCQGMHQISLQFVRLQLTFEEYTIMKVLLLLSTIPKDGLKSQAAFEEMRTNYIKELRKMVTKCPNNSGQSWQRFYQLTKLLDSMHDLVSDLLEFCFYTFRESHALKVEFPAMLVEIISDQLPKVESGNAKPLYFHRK
As to the kind of experiment: Mineralocorticoid Receptor Binding Assay ([3H]-aldosterone). As to conditions: [3H]-aldosterone binding, human MR expressed in Sf9 cells; read-out: MR Ki. In short, it runs like this: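 Lysate supernatant of Sf9 cells expressing full-length human MR (20-25 μg protein) was incubated with 0.5 nM [3H]-aldosterone and test compound in molybdate/Tris/phosphate/glycerol buffer, pH 7.5, ~16 h at 4 °C. Bound ligand was filtered and counted by scintillation; IC50 is the concentration halving [3H]-aldosterone binding.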

The next test concerns the target T2, glucocorticoid receptor (Homo sapiens, UniProt P04150).
T2 construct: containing 50-200 ug of A549 cell extract and 1.86 nM [^3H]-dexamethasone; host or cells: A549 human lung epithelial cells (sonicated cell extract)
T2 sequence (P04150 1-777): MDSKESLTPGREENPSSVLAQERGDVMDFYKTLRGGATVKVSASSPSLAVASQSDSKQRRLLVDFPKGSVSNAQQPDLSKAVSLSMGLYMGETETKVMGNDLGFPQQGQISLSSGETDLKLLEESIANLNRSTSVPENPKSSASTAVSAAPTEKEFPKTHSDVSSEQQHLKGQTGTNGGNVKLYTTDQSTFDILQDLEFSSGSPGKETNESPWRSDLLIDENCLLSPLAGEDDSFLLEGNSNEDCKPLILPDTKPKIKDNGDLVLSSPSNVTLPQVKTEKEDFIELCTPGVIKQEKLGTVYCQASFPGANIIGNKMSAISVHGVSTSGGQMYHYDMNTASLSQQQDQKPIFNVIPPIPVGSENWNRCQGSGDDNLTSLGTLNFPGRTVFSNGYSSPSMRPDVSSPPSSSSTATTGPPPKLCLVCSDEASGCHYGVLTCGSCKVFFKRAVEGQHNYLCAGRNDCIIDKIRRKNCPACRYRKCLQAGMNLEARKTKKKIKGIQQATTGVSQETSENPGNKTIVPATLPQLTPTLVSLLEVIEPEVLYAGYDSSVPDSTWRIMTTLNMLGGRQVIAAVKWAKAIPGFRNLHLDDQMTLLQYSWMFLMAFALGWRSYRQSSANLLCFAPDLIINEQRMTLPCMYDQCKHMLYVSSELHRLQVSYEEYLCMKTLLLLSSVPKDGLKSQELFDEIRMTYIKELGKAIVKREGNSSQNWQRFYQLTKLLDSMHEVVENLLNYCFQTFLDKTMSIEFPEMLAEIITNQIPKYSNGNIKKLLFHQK
The experiment in a line: Glucocorticoid Receptor Binding Assay ([3H]-dexamethasone, A549 cell extract). As to conditions: [3H]-dexamethasone binding, read-out: GR Ki. The method in brief: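 A549 cell extract (50–200 ug) incubated with 1.86 nM [3H]-dexamethasone and test compound for 16 h at 4 °C in Tris-HCl pH 7.2 buffer with glycerol and molybdate. Unbound radioligand removed by dextran-coated charcoal, then supernatant bound counts measured by scintillation.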

Consider `CS(=O)(=O)Nc1cccc(/C=C2\c3ccccc3CS(=O)(=O)c3ccccc32)c1` [Example 264, N-[3-(10,10-Dioxo-10,11-dihydro-10λ^6-thia-dibenzo[a,d]cyclohepten-5-ylidenemethyl)-phenyl]-Methanesulfonamide], for which the Ki (commonly a measure of affinity in units of concentration, obtained from inhibition or displacement) on human MR is under 1000 nM; on glucocorticoid receptor, under 10000 nM.

In the case of `CS(=O)(=O)Nc1cccc(/C=C2\c3ccccc3COc3ccccc32)c1` [Example 267, N-[3-(6H-Dibenzo[b,e]oxepine-11-ylidenemethyl)-phenyl]-methanesulfonamide], the Ki at human MR and at glucocorticoid receptor was under 500 nM in each case.

With `CS(=O)(=O)Nc1cccc(/C=C2/c3ccccc3COc3ccccc32)c1` [Example 268, N-[3-(6H-Dibenzo[b,e]oxepin-11-ylidenemethyl)-phenyl]-methanesulfonamide], the Ki at human MR and at glucocorticoid receptor was under 500 nM in each case.

With `COc1cccc2c1OCc1ccccc1/C2=C\c1cccc(NS(C)(=O)=O)c1` [Example 271, N-[3-(4-Methoxy-6H-dibenzo[b,e]oxepin-11-ylidenemethyl)-phenyl]-methanesulfonamide], the Ki at human MR and at glucocorticoid receptor was under 500 nM each time.

Consider `CS(=O)(=O)Nc1cccc(/C=C2/c3ccccc3OCc3c(Cl)cccc32)c1` [Example 274, N-[3-(7-Chloro-6H-dibenzo[b,e]oxepin-11-ylidenemethyl)-phenyl]-methanesulfonamide], for which the Ki on human MR and at glucocorticoid receptor was under 500 nM each time.

Turning to `CS(=O)(=O)c1cccc(C=C2c3ccccc3CCc3ccccc32)c1` [Example 279, 5-(3-Methanesulfonyl-benzylidene)-10,11-dihydro-5H-dibenzo[a,d]cycloheptene], the inhibition constant Ki at human MR is under 500 nM; on glucocorticoid receptor, under 10000 nM.

As for `N#CNc1cccc(C=C2c3ccccc3CCc3ccccc32)c1` [Example 280], the figures for the Ki on human MR and on glucocorticoid receptor were under 500 nM and under 1000 nM, respectively.

Turning to `O=S(=O)(Nc1cccc(C=C2c3ccccc3CCc3ccccc32)c1)C(F)(F)F` [Example 281], the Ki is under 500 nM at human MR and under 10000 nM at glucocorticoid receptor.

With `Cc1ccccc1CC1c2ccccc2CCc2ccccc21` [Example 282], the Ki at human MR and on glucocorticoid receptor was under 500 nM in each case.

For `FC(F)(F)c1ccccc1CC1c2ccccc2CCc2ccccc21` [Example 283], the figures for the Ki at human MR and on glucocorticoid receptor were under 500 nM and under 10000 nM, respectively.

As for `Cc1ccc(CC2c3ccccc3CCc3ccccc32)cc1NS(C)(=O)=O` [Example 286], the Ki on human MR was under 500 nM; on glucocorticoid receptor, under 10000 nM.

Take `Nc1ccccc1CC1c2ccccc2CCc2ccccc21` [Example 287]: the Ki on human MR and at glucocorticoid receptor was under 500 nM in each case.

Consider `O=S(=O)(Nc1cccc(C=C2c3ccccc3CCc3cc(Cl)ccc32)c1)c1ccc(Cl)cc1` [Example 290], for which the Ki on human MR was under 500 nM; at glucocorticoid receptor, under 1000 nM.

As for `O=S(=O)(Nc1cccc(C=C2c3ccccc3CCc3cc(Cl)ccc32)c1)c1ccc(F)cc1` [Example 291], the inhibition constant (Ki) at human MR and at glucocorticoid receptor was under 500 nM in each case.

Consider `Cc1ccc(S(=O)(=O)Nc2cccc(C=C3c4ccccc4CCc4cc(Cl)ccc43)c2)cc1` [Example 292], for which the Ki on human MR and on glucocorticoid receptor was under 500 nM in each case.

For the compound `COc1ccc(S(=O)(=O)Nc2cccc(C=C3c4ccccc4CCc4cc(Cl)ccc43)c2)cc1` [Example 293], the Ki on human MR and at glucocorticoid receptor was under 500 nM each time.

With `O=S(=O)(Nc1cccc(C=C2c3ccccc3CCc3cc(Cl)ccc32)c1)c1ccc(Cl)c(Cl)c1` [Example 294], the Ki on human MR was under 500 nM; at glucocorticoid receptor, under 10000 nM.

`O=S(=O)(Nc1cccc(C=C2c3ccccc3CCc3cc(Cl)ccc32)c1)c1cccs1` [Example 295]: the Ki at human MR and on glucocorticoid receptor was under 500 nM throughout.

With `Cn1cnc(S(=O)(=O)Nc2cccc(C=C3c4ccccc4CCc4cc(Cl)ccc43)c2)c1` [Example 296], the Ki on human MR is under 500 nM; at glucocorticoid receptor, under 10000 nM.

The record behind these values is US20060063759A1, “Tricyclic steroid hormone nuclear receptor modulators” (priority 2002, published 2006).
